Tests used:
Staphylococcus aureus [1] = assay: Antibacterial activity against methicillin resistant Staphylococcus aureus ATCC 62202 assessed as reduction in microbial growth after 16 to 18 hrs by microbroth dilution method; type: functional; details: time 16-18 hrs
Staphylococcus aureus [2] = assay: Antibacterial activity against methicillin resistant Staphylococcus aureus ATCC513045 assessed as reduction in microbial growth after 16 to 18 hrs by microbroth dilution method; type: functional; details: time 16-18 hrs
Staphylococcus aureus [3] = assay: Antibacterial activity against methicillin resistant Staphylococcus aureus ATCC48966 assessed as reduction in microbial growth after 16 to 18 hrs by microbroth dilution method; type: functional; details: time 16-18 hrs
L02 = assay: Cytotoxicity against human L02 cells assessed as cell viability at 10 ug/ml measured after 24 hrs by MTT assay; type: cell-based; details: l02, 24 h, dose 10 µg/ml
Staphylococcus aureus [4] = assay: Antibacterial activity against methicillin resistant Staphylococcus aureus ATCC515992 assessed as reduction in microbial growth after 16 to 18 hrs by microbroth dilution method; type: functional; details: time 16-18 hrs
Pseudomonas aeruginosa = assay: Antibacterial activity against Pseudomonas aeruginosa ATCC27853 assessed as reduction in microbial growth after 16 to 18 hrs by microbroth dilution method; type: functional; details: time 16-18 hrs
Staphylococcus aureus [5] = assay: Antibacterial activity against methicillin resistant Staphylococcus aureus ATCC 43300 assessed as reduction in microbial growth after 16 to 18 hrs by microbroth dilution method; type: functional; details: time 16-18 hrs
RAW264.7 = assay: Cytotoxicity against mouse RAW264.7 cells assessed as cell viability at 10 ug/ml measured after 24 hrs by MTT assay; type: cell-based; details: raw264.7, 24 h, dose 10 µg/ml
Staphylococcus aureus [6] = assay: Antibacterial activity against methicillin resistant Staphylococcus aureus ATCC48073 assessed as reduction in microbial growth after 16 to 18 hrs by microbroth dilution method; type: functional; details: time 16-18 hrs
Staphylococcus aureus [7] = assay: Antibacterial activity against methicillin resistant Staphylococcus aureus ATCC49025 assessed as reduction in microbial growth after 16 to 18 hrs by microbroth dilution method; type: functional; details: time 16-18 hrs
Staphylococcus aureus [8] = assay: Antibacterial activity against methicillin resistant Staphylococcus aureus ATCC48706 assessed as reduction in microbial growth after 16 to 18 hrs by microbroth dilution method; type: functional; details: time 16-18 hrs
Staphylococcus aureus [9] = assay: Antibacterial activity against methicillin resistant Staphylococcus aureus ATCC49800 assessed as reduction in microbial growth after 16 to 18 hrs by microbroth dilution method; type: functional; details: time 16-18 hrs
Enterococcus faecalis = assay: Antibacterial activity against Enterococcus faecalis ATCC29212 assessed as reduction in microbial growth after 16 to 18 hrs by microbroth dilution method; type: functional; details: ATCC 29212, time 16-18 hrs
Staphylococcus aureus [10] = assay: Antibacterial activity against Staphylococcus aureus ATCC 25923 assessed as reduction in microbial growth after 16 to 18 hrs by microbroth dilution method; type: functional; details: time 16-18 hrs
Staphylococcus aureus [11] = assay: Antibacterial activity against methicillin resistant Staphylococcus aureus ATCC49008 assessed as reduction in microbial growth after 16 to 18 hrs by microbroth dilution method; type: functional; details: time 16-18 hrs
Escherichia coli = assay: Antibacterial activity against Escherichia coli ATCC25922 assessed as reduction in microbial growth after 16 to 18 hrs by microbroth dilution method; type: functional; details: ATCC 25922, time 16-18 hrs
Staphylococcus aureus [12] = assay: Antibacterial activity against methicillin resistant Staphylococcus aureus ATCC 52056 assessed as reduction in microbial growth after 16 to 18 hrs by microbroth dilution method; type: functional; details: time 16-18 hrs

SMILES	MIC (Staphylococcus aureus [1]) [µg/mL]	MIC (Staphylococcus aureus [2]) [µg/mL]	MIC (Staphylococcus aureus [3]) [µg/mL]	Activity (L02)	MIC (Staphylococcus aureus [4]) [µg/mL]	MIC (Pseudomonas aeruginosa) [µg/mL]	MIC (Staphylococcus aureus [5]) [µg/mL]	Activity (RAW264.7)	MIC (Staphylococcus aureus [6]) [µg/mL]	MIC (Staphylococcus aureus [7]) [µg/mL]	MIC (Staphylococcus aureus [8]) [µg/mL]	MIC (Staphylococcus aureus [9]) [µg/mL]	MIC (Enterococcus faecalis) [µg/mL]	MIC (Staphylococcus aureus [10]) [µg/mL]	MIC (Staphylococcus aureus [11]) [µg/mL]	MIC (Escherichia coli) [µg/mL]	MIC (Staphylococcus aureus [12]) [µg/mL]
CC(C)=CCc1c(OC2CCCCCC2)cc(/C=C/c2ccc(C(F)(F)F)cc2)c(C(=O)O)c1O	2	2	4	Toxic	4	> 32	1	Toxic	4	4	4	4	> 32	4	4	> 32	1
CC(C)=CCc1c(OCc2ccccc2)cc(/C=C/c2ccc(F)cc2)c(C(=O)O)c1O	4	4	4	Toxic	4	> 32	32	Toxic	4	4	4	4	> 32	4	4	> 32	4
CCC(CC)Oc1cc(/C=C/c2ccc(F)cc2)c(C(=O)O)c(O)c1CC=C(C)C	2	2	2	Toxic	4	> 32	2	Toxic	4	2	2	2	> 32	2	2	> 32	2
CC(C)=CCc1c(OCCCCF)cc(/C=C/c2ccc(C(F)(F)F)cc2)c(C(=O)O)c1O	4	4	4	Toxic	2	> 32	2	Toxic	4	4	4	4	> 32	4	4	> 32	2
CC(C)=CCc1c(OCC(F)F)cc(/C=C/c2ccc(C(F)(F)F)cc2)c(C(=O)O)c1O	2	2	2	Toxic	2	> 32	2	Toxic	2	2	2	2	> 32	2	2	> 32	2
CC(C)=CCc1c(OCCCCF)cc(/C=C/c2ccc(F)cc2)c(C(=O)O)c1O	4	4	4	Toxic	4	> 32	4	Toxic	4	4	4	4	> 32	4	4	> 32	4
CC(C)=CCc1c(OC2CCC2)cc(/C=C/c2ccc(F)cc2)c(C(=O)O)c1O	4	2	2	Toxic	4	> 32	2	Toxic	2	2	2	2	> 32	2	2	> 32	2
CC(C)=CCc1c(OCCCF)cc(/C=C/c2ccc(F)cc2)c(C(=O)O)c1O	4	4	4	Toxic	4	> 32	4	Toxic	4	4	4	4	> 32	4	4	> 32	2
CC(C)=CCc1c(OC2CCCCC2)cc(/C=C/c2ccc(F)cc2)c(C(=O)O)c1O	2	2	4	Toxic	4	> 32	2	Toxic	4	4	4	4	> 32	2	4	> 32	2
CC(C)=CCc1c(OCCF)cc(/C=C/c2ccc(C(F)(F)F)cc2)c(C(=O)O)c1O	4	4	8	Toxic	4	> 32	2	Toxic	8	8	8	8	> 32	4	8	> 32	2
CC(C)=CCc1c(OC2CCCCCC2)cc(/C=C/c2ccc(F)cc2)c(C(=O)O)c1O	2	2	2	Toxic	2	> 32	1	Toxic	2	2	2	4	> 32	2	2	> 32	1
CC(C)=CCc1c(OC2CCCC2)cc(/C=C/c2ccc(C(F)(F)F)cc2)c(C(=O)O)c1O	2	2	2	Toxic	2	> 32	2	Toxic	2	2	2	2	> 32	2	2	> 32	2
CCCC(CC)Oc1cc(/C=C/c2ccc(C(F)(F)F)cc2)c(C(=O)O)c(O)c1CC=C(C)C (configuration not stated)	2	2	8	Toxic	4	> 32	2	Toxic	4	8	4	4	> 32	4	8	> 32	2
CC(C)=CCc1c(OC(C)C)cc(/C=C/c2ccc(C(F)(F)F)cc2)c(C(=O)O)c1O	2	2	2	Toxic	2	> 32	1	Toxic	2	2	2	2	> 32	2	2	> 32	2
CC(C)=CCc1c(OCCCF)cc(/C=C/c2ccc(C(F)(F)F)cc2)c(C(=O)O)c1O	4	2	4	Toxic	4	> 32	2	Toxic	4	4	4	4	> 32	2	4	> 32	2
CCC(C)Oc1cc(/C=C/c2ccc(F)cc2)c(C(=O)O)c(O)c1CC=C(C)C (configuration not stated)	2	2	4	Toxic	4	> 32	2	Toxic	4	4	4	4	> 32	2	4	> 32	2

From ChEMBL document CHEMBL4828717, “Synthetic cajaninstilbene acid derivatives eradicate methicillin-resistant Staphylococcus aureus persisters and biofilms” (Eur J Med Chem, 2021)
